Results: patent US7807673B2, “2-pyrimidinyl pyrazolopyridine ErbB kinase inhibitors” (GlaxoSmithKline LLC, priority 2005, dated 2010)

Key:
[1] = target: T1, ErbB2 or EGFR; experiment: ErbB enzyme substrate phosphorylation assay (HTRF), Method A; format: biochemical; settings: Table 1, enzyme Method A: substrate mix added first, reaction started with enzyme mix; class over ErbB2 or EGFR
T1 construct: enzymes purified from a baculovirus expression system
Protocol: Compounds of the present invention were tested for EGFR, ErbB-2, and ErbB-4 protein tyrosine kinase inhibitory activity in substrate phosphorylation assays using enzymes purified from a baculovirus expression system. Reagent production was conducted essentially as described in Brignola, P. S., et al, (2002) J. Biol. Chem. 277(2): 1576-1585.
The method measures the ability of the isolated enzyme to catalyse the transfer of the gamma-phosphate from ATP onto the tyrosine residue of a biotinylated synthetic peptide referenced “Peptide C” in Brignola, P. S., et al, (2002) J. Biol. Chem. 277(2):1576-1585. The extent of tyrosine phosphorylation was measured using an anti-phosphotyrosine antibody, and quantified by homogenous time-resolved fluorescence (HTRF).
Reactions were performed in black 384-well polystyrene flat-bottom plates in a final volume of 20 μl. Assays were performed by adding 10 μl of each of the following solutions, substrate Mix and enzyme mix: The Substrate mix contained 100 mM 3-[N-morpholino]propanesulfonic acid (MOPS) (pH 7.5), 2 mM MnCl2, 20 μM ATP, 0.01% Tween-20, 0.1 mg/mL (BSA), 0.8 uM peptide substrate, and 1 mM dithiothreitol. The enzyme mix contained 100 mM MOPS (pH7.5); 0.01% Tween-20; 0.1 mg/mL BSA, and either 0.8 nM EGFR, 10 nM ErbB2, or 1 nM ErbB4
During the course of these studies, two separate methods have been used to measure the potency of compounds. In Method A, the substrate mix was added to the compound plates first, then the reaction was started by adding the enzyme mix. In Method B, the enzyme mix was added to the compound plates and the plates were incubated at 20° C. for 1 hour. The reactions were then started by adding the substrate mix.
After initiating the reaction with either method describe above, the reactions were allowed to proceed for 90 minutes at 20° C. The reactions were then terminated by the addition of 20 μl 100 mM EDTA to each well. 40 μl/well of HTRF detection mix were added to the assay plates. The final concentrations of the detection reagents were: 100 mM HEPES (pH7.5), 0.1 mg/mL BSA, 15 nM streptavidin-labeled allophycocyanin (PerkinElmer), and 1 nM europium-labeled anti-phosphotyrosine antibody (PerkinElmer). Assay plates were left unsealed and were counted in a Wallac Multilabel Counter 1420 (PerkinElmer). […]
The data for dose responses were plotted as % Inhibition calculated with the data reduction formula 100*(1−(U1−C2)/(C1−C2)) versus concentration of compound where U is the unknown value, C1 is the average control value obtained for 4.76% DMSO, and C2 is the average control value obtained for 0.035 M EDTA. […] The results for each compound were recorded as pIC50s, calculated as follows: pIC50=−Log 10(K)

[2] = target: T1, ErbB2 or EGFR; experiment: ErbB enzyme substrate phosphorylation assay (HTRF), Method B (enzyme pre-incubated with compound 1 hour); format: biochemical; settings: Table 1, enzyme Method B: enzyme mix incubated with compound 1 hour at 20° C., reaction started with substrate mix; class over ErbB2 or EGFR
Summary of the method: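 Baculovirus-expressed kinase (0.8 nM EGFR or 10 nM ErbB2 in enzyme mix) phosphorylated biotinylated Peptide C (0.8 µM in substrate mix) with 20 µM ATP in substrate mix, MOPS pH 7.5, MnCl2, 90 min at 20 °C. Method A started with enzyme; Method B pre-incubated enzyme with compound 1 h at 20 °C. HTRF read-out; IC50 from 12-point curve (0.00027–47.6 µM), reported as pIC50.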

[3] = system: Colo205 tumor cell lines; experiment: Methylene blue growth inhibition assay (cellular Method A); format: cell-based; settings: Homo sapiens, COLO 205, 72 h, Table 3, Method A methylene blue, 3 days
Protocol: (§1) Human breast (BT474) and head and neck (HN5) were cultured in low glucose DMEM (Life Technologies 12320-032) containing 10% fetal bovine serum (FBS). Human colon tumor cells (Colo205) were cultured in DMEM (Invitrogen, 10564) containing 10% FBS. The SV40 transformed human mammary epithelial cell line to HB4a was transfected with either human H-ras cDNA (HB4a r4.2) or the human c-ErbB2 cDNA (HB4a c5.2). The HB4a clones were cultured in RPMI containing 10% FBS, insulin ([…]), hydrocortisone ([…]), supplemented with the selection agent hygromycin B ([…]). All lines were grown in a humidified incubator at 37° C. in 95% air, 5% CO2. Cells were harvested using trypsin/EDTA, counted using a haemocytometer, and plated in 100 microliters of the appropriate media, at the following densities, in a 96-well tissue culture plate (Falcon 3075): BT474 10,000 cells/well, HN5 3,000 cells/well. The next day, compounds were diluted in DMEM containing […] gentamicin, at twice the final required concentration, from 10 mM stock solutions in DMSO. 100 microliters/well of these dilutions were added to the 100 microliters of media currently on the cell plates. Medium containing 0.6% DMSO was added to control wells. Compounds diluted in DMEM were added to all cell lines. The final concentration of DMSO in all wells was 0.3%. Cells were returned to the incubator (37° C., […]) for 3 days. Medium was then removed by aspiration. Cell biomass was estimated by staining cells with 90 microliters per well methylene blue (Sigma M9140, 0.5% in 1:1 ethanol:water), and incubation at rt for at least 30 minutes. Stain was removed, and the plates rinsed by immersion in deionized water and air-dried. To release stain from the cells 100 microliters of solubilization solution was added (1% N-lauroyl sarcosine, Sodium salt, Sigma L5125, in PBS), and plates were shaken gently for about 30 minutes. Optical density at 620 nm was measured on a microplate reader. Percent inhibition of cell growth was calculated relative to vehicle treated control wells. Concentration of compound that inhibits 50% of control cell growth (IC50) was interpolated using nonlinear regression (Levenberg-Marquardt) and the equation, y=Vmax*(1−(x/(K+x)))+Y2, where “K” was equal to the IC50. Method B: Celltiter Glo® Growth Inhibition Assays

[4] = system: BT474 and HN5 tumor cell lines; experiment: as above; format: cell-based; settings: Homo sapiens, BT-474 and HN5, 72 h; Table 2, Method A methylene blue, 3 days; class over BT474 and HN5;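 further: class counts the more potent of the two cell lines (BT474 or HN5)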
Protocol: as §1

Row | Compound | IC50 [3] | IC50 [4] | Activity (Method) [1] | Activity (Method) [2]
1 | O=C(Cc1cccs1)Nc1cccc(-c2nn3ccccc3c2-c2ccnc(Nc3ccccc3)n2)c1 [Example 4, N-(3-{3-[2-(Phenylamino)-4-pyrimidinyl]pyrazolo[1,5-a]pyridin-2-yl}phenyl)-2-(2-thienyl)acetamide] |  |  | ++ (A) (at least one pIC50 measurement greater than 6 against either ErbB2 or EGFR but no measurement greater than pIC50 of 7) | 
2 | O=C(Cc1cccc(Cl)c1)Nc1cccc(-c2nn3ccccc3c2-c2ccnc(Nc3ccccc3)n2)c1 [Example 5, 2-(3-Chlorophenyl)-N-(3-{3-[2-(phenylamino)-4-pyrimidinyl]pyrazolo-[1,5-a]pyridin-2-yl}phenyl)acetamide] |  |  | + (A) (no pIC50 measurement greater than 6 against either ErbB2 or EGFR) | 
3 | O=C(Cc1cc(F)ccc1F)Nc1cccc(-c2nn3ccccc3c2-c2ccnc(Nc3ccccc3)n2)c1 [Example 6, 2-(2,5-Difluorophenyl)-N-(3-{3-[2-(phenylamino)-4-pyrimidinyl]pyrazolo[1,5-a]pyridin-2-yl}phenyl)acetamide] |  |  | ++ (A) (at least one pIC50 measurement greater than 6 against either ErbB2 or EGFR but no measurement greater than pIC50 of 7) | 
4 | NCc1cccc(Nc2nccc(-c3c(-c4cccc(NC(=O)Cc5ccsc5)c4)nn4ccccc34)n2)c1 [Example 43, N-{3-[3-(2-{[3-(Aminomethyl)phenyl]amino}-4-pyrimidinyl)pyrazolo[1,5-a]pyridin-2-yl]phenyl}-2-(3-thienyl)acetamide] | > 1 µM | 0.1 to 1 µM |  | +++ (B) (at least one pIC50 measurement of greater than 7 against either ErbB2 or EGFR)
5 | O=C(Cc1cccs1)Nc1cccc(-c2nn3ccccc3c2-c2ccnc(Nc3ccc(Cl)c(OCCN4CCCC4)c3)n2)c1 [Example 44, N-[3-(3-{2-[(4-chloro-3-{[2-(1-pyrrolidinyl)ethyl]oxy}phenyl)amino]-4-pyrimidinyl}pyrazolo[1,5-a]pyridin-2-yl)phenyl]-2-(2-thienyl)acetamide] | > 1 µM | > 1 µM |  | +++ (B) (at least one pIC50 measurement of greater than 7 against either ErbB2 or EGFR)
6 | CN(C)CCOc1cc(Nc2nccc(-c3c(-c4cccc(NC(=O)Cc5cccs5)c4)nn4ccccc34)n2)ccc1Cl [Example 45] | > 1 µM | > 1 µM |  | ++ (B) (at least one pIC50 measurement greater than 6 against either ErbB2 or EGFR but no measurement greater than pIC50 of 7)

Second part, led by results:

Row | IC50 [3] | IC50 [4] | Compound | Activity (Method) [1] | Activity (Method) [2]
7 | > 1 µM | > 1 µM | Cc1cc(CC(=O)Nc2cccc(-c3nn4ccccc4c3-c3ccnc(Nc4cccc(CN(C)C)c4)n3)c2)on1 [Example 28, N-(3-{3-[2-({3-[(Dimethylamino)methyl]-phenyl}amino)-4-pyrimidinyl]pyrazolo[1,5-a]pyridin-2-yl}phenyl)-2-(3-methyl-5-isoxazolyl)acetamide] |  | +++ (B) (at least one pIC50 measurement of greater than 7 against either ErbB2 or EGFR)
8 | > 1 µM | > 1 µM | Cc1sc(-c2ccccc2)nc1CC(=O)Nc1cccc(-c2nn3ccccc3c2-c2ccnc(Nc3cccc(CN(C)C)c3)n2)c1 [Example 29, N-(3-{3-[2-({3-[(Dimethylamino)methyl]phenyl}amino)-4-pyrimidinyl]pyrazolo[1,5-a]pyridin-2-yl}phenyl)-2-(5-methyl-2-phenyl-1,3-thiazol-4-yl)acetamide] |  | + (B) (no pIC50 measurement greater than 6 against either ErbB2 or EGFR)
9 | 0.1 to 1 µM | 0.1 to 1 µM | CN(C)CCOc1cccc(Nc2nccc(-c3c(-c4cccc(NC(=O)Cc5ccsc5)c4)nn4ccccc34)n2)c1 [Example 39, N-[3-(3-{2-[(3-{[2-(dimethylamino)ethyl]oxy}phenyl)amino]-4-pyrimidinyl}pyrazolo[1,5-a]pyridin-2-yl)phenyl]-2-(3-thienyl)acetamide] |  | +++ (B) (at least one pIC50 measurement of greater than 7 against either ErbB2 or EGFR)
10 | 0.1 to 1 µM | 0.1 to 1 µM | CN(C)C1Cc2ccc(Nc3nccc(-c4c(-c5cccc(NC(=O)Cc6cccs6)c5)nn5ccccc45)n3)cc2C1 (stereo not drawn) [Example 53, N-{3-[3-(2-{[2-(Dimethylamino)-2,3-dihydro-1H-inden-5-yl]amino}pyrimidin-4-yl)pyrazolo[1,5-a]pyridin-2-yl]phenyl}-2-(2-thienyl)acetamide] |  | +++ (B) (at least one pIC50 measurement of greater than 7 against either ErbB2 or EGFR)
11 | 0.1 to 1 µM | < 0.1 µM | NC1Cc2ccc(Nc3nccc(-c4c(-c5cccc(NC(=O)Cc6cccs6)c5)nn5ccccc45)n3)cc2C1 (stereo not drawn) [Example 54, N-[3-(3-{2-[(2-Amino-2,3-dihydro-1H-inden-5-yl)amino]-4-pyrimidinyl}pyrazolo[1,5-a]pyridin-2-yl)phenyl]-2-(2-thienyl)acetamide] |  | +++ (B) (at least one pIC50 measurement of greater than 7 against either ErbB2 or EGFR)
12 | 0.1 to 1 µM | 0.1 to 1 µM | NC1CCc2ccc(Nc3nccc(-c4c(-c5cccc(NC(=O)Cc6cccs6)c5)nn5ccccc45)n3)cc2C1 (stereo not drawn) [Example 55, N-[3-(3-{2-[(7-Amino-5,6,7,8-tetrahydro-2-naphthalenyl)amino]-4-pyrimidinyl}pyrazolo[1,5-a]pyridin-2-yl)phenyl]-2-(2-thienyl)acetamide] |  | +++ (B) (at least one pIC50 measurement of greater than 7 against either ErbB2 or EGFR)
